The NIST ThermoML archive (doi:10.1021/acs.jced.5b00105)

Assay: refractive index (Na D-line) (dimensionless); xn = mol fraction of the nth substance listed
Details: 100 kPa, Liquid

CCC1CCCCC1 [ethylcyclohexane] + CC(C)CC(C)(C)C
refractive index
Details | 293.15 K | 298.15 K | 303.15 K | 308.15 K | 313.15 K | 318.15 K | 323.15 K
x1 = 0.1 | 1.3959 | 1.3926 | 1.3918 | 1.3889 | 1.3877 | 1.3826 | 1.3805
x1 = 0.1999 | – | 1.3965 | – | 1.3932 | – | 1.3867 | 1.3849
x1 = 0.2 | 1.4005 | – | 1.3964 | – | 1.3924 | – | –
x1 = 0.3 | – | 1.4004 | – | 1.3975 | – | 1.3912 | 1.3891
x1 = 0.3003 | 1.4043 | – | 1.4003 | – | 1.396 | – | –
x1 = 0.3997 | 1.4084 | – | 1.4041 | – | 1.4003 | – | –
x1 = 0.4 | – | 1.4046 | – | 1.4015 | – | 1.3954 | 1.3931
x1 = 0.5 | – | 1.4086 | – | 1.4059 | – | 1.3996 | 1.3975
x1 = 0.5002 | 1.4123 | – | 1.4084 | – | 1.4047 | – | –
x1 = 0.6001 | – | 1.4129 | – | 1.4098 | – | 1.4037 | 1.4015
x1 = 0.6005 | 1.4167 | – | 1.4125 | – | 1.4087 | – | –
x1 = 0.7002 | 1.4207 | – | 1.4169 | – | 1.4132 | – | –
x1 = 0.7004 | – | 1.4172 | – | 1.4146 | – | 1.4081 | 1.4059
x1 = 0.8001 | – | 1.4214 | – | 1.4186 | – | 1.4118 | 1.4097
x1 = 0.8003 | 1.4254 | – | 1.4211 | – | 1.4175 | – | –
x1 = 0.8994 | – | 1.4256 | – | 1.4228 | – | 1.4161 | 1.4144
x1 = 0.8997 | 1.4295 | – | 1.4253 | – | 1.4216 | – | –
x1 = 1 | 1.4337 | 1.4301 | 1.4295 | 1.4278 | 1.4259 | 1.4204 | 1.4187
